Read-outs that look alike come from different tables or passages of the source.
Tested on: cancer cells
Assay: MTS assay: inhibition of cell growth (formazan absorbance at 492 nm after 72 hours with test compound)
Assay type: cell-based
Conditions: inhibition class
Procedure, shortened: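 DMEM with 1% FBS; cells seeded at 3000/well and grown 18 h at 37 °C, then exposed to compound for 72 h and to MTS/PMS for 4 h. IC50 is the concentration giving a 50% absorbance drop; grades are % inhibition bands.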

[1] = Homo sapiens, DLD-1 cells, read-out: DLD-1, MTS 72 hours at 10 uM
[2] = Homo sapiens, KATO III cells, read-out: KATO III, MTS 72 hours at 10 uM
[3] = Homo sapiens, MDA-MB-231 cells, read-out: MDA-MB-231, MTS 72 hours at 10 uM
[4] = Homo sapiens, NCI-H1299 cells, read-out: NCI-H1299, MTS 72 hours at 10 uM
[5] = Homo sapiens, PC-3 cells, read-out: PC-3, MTS 72 hours at 10 uM
[6] = PACA-2 cells, read-out: PACA-2, MTS 72 hours at 10 uM

For `OCCN(Cc1ccccc1)c1nc2c3c(n[nH]c3n1)CCN2Cc1ccccc1` [Compound 62, 2-[benzyl(6-benzyl-2,6,7,8-tetrahydro-1,2,3,5,6-pentaazaacenaphthylen-4-yl)amino]ethanol], the inhibition at 10 µM [1] was under 50%, the inhibition at 10 µM [2] was under 50% and the inhibition at 10 µM [3] was 50 to 79%. For the same compound, the inhibition at 10 µM [4] was under 50%, the inhibition at 10 µM [5] was under 50% and the inhibition at 10 µM [6] was under 50%.
`c1ccc(CN2CCc3n[nH]c4nc(NCc5ccc6c(c5)CCO6)nc2c34)cc1` [Compound 63, 6-benzyl-N-(2,3-dihydro-1-benzofuran-5-ylmethyl)-2,6,7,8-tetrahydro-1,2,3,5,6-pentaazaacenaphthylen-4-amine] was tested, and the inhibition at 10 µM [1] was under 50%, the inhibition at 10 µM [2] was under 50% and the inhibition at 10 µM [3] was under 50%. For the same compound, the inhibition at 10 µM [4] was under 50%, the inhibition at 10 µM [5] was under 50% and the inhibition at 10 µM [6] was under 50%.
Compound `CN(CCO)c1nc2c3c(n[nH]c3n1)CCN2Cc1ccccc1` [Compound 64, 2-[(6-benzyl-2,6,7,8-tetrahydro-1,2,3,5,6-pentaazaacenaphthylen-4-yl)(methyl)amino]ethanol] has an inhibition at 10 µM [1] of under 50%, an inhibition at 10 µM [2] of under 50% and an inhibition at 10 µM [3] of under 50%. For the same compound, the inhibition at 10 µM [4] was under 50%, the inhibition at 10 µM [5] was under 50% and the inhibition at 10 µM [6] was under 50%.
Compound `c1ccc(CN2CCc3n[nH]c4nc(NCCc5ccccn5)nc2c34)cc1` [Compound 65, 6-benzyl-N-(2-pyridin-2-ylethyl)-2,6,7,8-tetrahydro-1,2,3,5,6-pentaazaacenaphthylen-4-amine] has an inhibition at 10 µM [1] of under 50%, an inhibition at 10 µM [2] of under 50% and an inhibition at 10 µM [3] of under 50%. For the same compound, the inhibition at 10 µM [4] was under 50%, the inhibition at 10 µM [5] was under 50% and the inhibition at 10 µM [6] was under 50%.
Compound `c1ccc(CN2CCc3n[nH]c4nc(NCCc5ccc(-c6ccccc6)cc5)nc2c34)cc1` [Compound 66, 6-benzyl-N-(2-biphenyl-4-ylethyl)-2,6,7,8-tetrahydro-1,2,3,5,6-pentaazaacenaphthylen-4-amine] has an inhibition at 10 µM [1] of 50 to 79%, an inhibition at 10 µM [2] of under 50% and an inhibition at 10 µM [3] of under 50%. For the same compound, the inhibition at 10 µM [4] was under 50%, the inhibition at 10 µM [5] was under 50% and the inhibition at 10 µM [6] was 50 to 79%.
In the case of `c1ccc(CN2CCc3n[nH]c4nc(NCC5CCCCCC5)nc2c34)cc1` [Compound 67, 6-benzyl-N-(cycloheptylmethyl)-2,6,7,8-tetrahydro-1,2,3,5,6-pentaazaacenaphthylen-4-amine], the inhibition at 10 µM [1] is reported as under 50%, the inhibition at 10 µM [2] is reported as under 50% and the inhibition at 10 µM [3] is reported as under 50%. For the same compound, the inhibition at 10 µM [4] was 50 to 79%, the inhibition at 10 µM [5] was under 50% and the inhibition at 10 µM [6] was 50 to 79%.
Work on `CC(=O)NCCNc1nc2c3c(n[nH]c3n1)CCN2Cc1ccccc1` [Compound 68, N-{2-[(6-benzyl-2,6,7,8-tetrahydro-1,2,3,5,6-pentaazaacenaphthylen-4-yl)amino]ethyl}acetamide] yielded an inhibition at 10 µM [1] of under 50%, an inhibition at 10 µM [2] of under 50% and an inhibition at 10 µM [3] of under 50%. The inhibition at 10 µM [4] was under 50%, the inhibition at 10 µM [5] was under 50% and the inhibition at 10 µM [6] was under 50%.
`CC(O)CNc1nc2c3c(n[nH]c3n1)CCN2Cc1ccccc1` (stereo not drawn) [Compound 69, 1-[(6-benzyl-2,6,7,8-tetrahydro-1,2,3,5,6-pentaazaacenaphthylen-4-yl)amino]propan-2-ol] showed an inhibition at 10 µM [1] of under 50%, an inhibition at 10 µM [2] of under 50% and an inhibition at 10 µM [3] of under 50%. It also gave an inhibition at 10 µM [4] of under 50%, an inhibition at 10 µM [5] of under 50% and an inhibition at 10 µM [6] of under 50%.
In the case of `Clc1ccc(CCNc2nc3c4c(n[nH]c4n2)CCN3Cc2ccccc2)cc1Cl` [Compound 70, 6-benzyl-N-[2-(3,4-dichlorophenyl)ethyl]-2,6,7,8-tetrahydro-1,2,3,5,6-pentaazaacenaphthylen-4-amine], the inhibition at 10 µM [1] is reported as over 79%, the inhibition at 10 µM [2] is reported as over 79% and the inhibition at 10 µM [3] is reported as over 79%. It also gave an inhibition at 10 µM [4] of over 79%, an inhibition at 10 µM [5] of under 50% and an inhibition at 10 µM [6] of over 79%.
Compound `c1ccc(CN2CCc3n[nH]c4nc(NCc5cccc(-c6ccccc6)c5)nc2c34)cc1` [Compound 71, 6-benzyl-N-(biphenyl-3-ylmethyl)-2,6,7,8-tetrahydro-1,2,3,5,6-pentaazaacenaphthylen-4-amine] has an inhibition at 10 µM [1] of 50 to 79%, an inhibition at 10 µM [2] of 50 to 79% and an inhibition at 10 µM [3] of 50 to 79%. For the same compound, the inhibition at 10 µM [4] was 50 to 79%, the inhibition at 10 µM [5] was under 50% and the inhibition at 10 µM [6] was 50 to 79%.
`O[C@H](CNc1nc2c3c(n[nH]c3n1)CCN2Cc1ccccc1)c1ccccc1` [Compound 72, (1S)-2-[(6-benzyl-2,6,7,8-tetrahydro-1,2,3,5,6-pentaazaacenaphthylen-4-yl)amino]-1-phenylethanol] was tested, and the inhibition at 10 µM [1] was under 50%, the inhibition at 10 µM [2] was under 50% and the inhibition at 10 µM [3] was under 50%. It also gave an inhibition at 10 µM [4] of under 50%, an inhibition at 10 µM [5] of under 50% and an inhibition at 10 µM [6] of under 50%.
In the case of `Cc1cccc2c(CCNc3nc4c5c(n[nH]c5n3)CCN4Cc3ccccc3)c[nH]c12` [Compound 73, 6-benzyl-N-[2-(7-methyl-1H-indol-3-yl)ethyl]-2,6,7,8-tetrahydro-1,2,3,5,6-pentaazaacenaphthylen-4-amine], the inhibition at 10 µM [1] is reported as over 79%, the inhibition at 10 µM [2] is reported as over 79% and the inhibition at 10 µM [3] is reported as 50 to 79%. For the same compound, the inhibition at 10 µM [4] was over 79%, the inhibition at 10 µM [5] was under 50% and the inhibition at 10 µM [6] was 50 to 79%.
With `c1ccc(CN2CCc3n[nH]c4nc(N5CCN(CCc6ccncc6)CC5)nc2c34)cc1` [Compound 74, 6-benzyl-4-[4-(2-pyridin-4-ylethyl)piperazin-1-yl]-2,6,7,8-tetrahydro-1,2,3,5,6-pentaazaacenaphthylene] the inhibition at 10 µM [1] was under 50%, the inhibition at 10 µM [2] was under 50% and the inhibition at 10 µM [3] was under 50%. For the same compound, the inhibition at 10 µM [4] was under 50%, the inhibition at 10 µM [5] was under 50% and the inhibition at 10 µM [6] was under 50%.
For `OCCN1CCN(c2nc3c4c(n[nH]c4n2)CCN3Cc2ccccc2)CC1` [Compound 75, 2-[4-(6-benzyl-2,6,7,8-tetrahydro-1,2,3,5,6-pentaazaacenaphthylen-4-yl)piperazin-1-yl]ethanol], the inhibition at 10 µM [1] was under 50%, the inhibition at 10 µM [2] was under 50% and the inhibition at 10 µM [3] was under 50%. The inhibition at 10 µM [4] was under 50%, the inhibition at 10 µM [5] was under 50% and the inhibition at 10 µM [6] was under 50%.
Work on `c1ccc(CN2CCc3n[nH]c4nc(N5CCCCC5)nc2c34)cc1` [Compound 76, 6-benzyl-4-piperidin-1-yl-2,6,7,8-tetrahydro-1,2,3,5,6-pentaazaacenaphthylene] yielded an inhibition at 10 µM [1] of under 50%, an inhibition at 10 µM [2] of under 50% and an inhibition at 10 µM [3] of under 50%. The inhibition at 10 µM [4] was under 50%, the inhibition at 10 µM [5] was under 50% and the inhibition at 10 µM [6] was under 50%.
`Cc1cccc(CCNc2nc3c4c(n[nH]c4n2)CCN3Cc2ccccc2)c1` [Compound 77, 6-benzyl-N-[2-(3-methylphenyl)ethyl]-2,6,7,8-tetrahydro-1,2,3,5,6-pentaazaacenaphthylen-4-amine] was tested, and the inhibition at 10 µM [1] was under 50%, the inhibition at 10 µM [2] was under 50% and the inhibition at 10 µM [3] was under 50%. It also gave an inhibition at 10 µM [4] of 50 to 79%, an inhibition at 10 µM [5] of under 50% and an inhibition at 10 µM [6] of under 50%.
In the case of `COCC(C)Nc1nc2c3c(n[nH]c3n1)CCN2Cc1ccccc1` (stereo not drawn) [Compound 78, 6-benzyl-N-(2-methoxy-1-methylethyl)-2,6,7,8-tetrahydro-1,2,3,5,6-pentaazaacenaphthylen-4-amine], the inhibition at 10 µM [1] is reported as under 50%, the inhibition at 10 µM [2] is reported as under 50% and the inhibition at 10 µM [3] is reported as over 79%. For the same compound, the inhibition at 10 µM [4] was under 50%, the inhibition at 10 µM [5] was over 79% and the inhibition at 10 µM [6] was under 50%.

From US8343983B2, “Substituted pyrazolo-pyrimidine compounds” (ArQule, Inc., priority 2009, dated 2013)
